The record followed here is the NIST ThermoML archive (doi:10.1016/j.jct.2015.08.019).

A short description of the series: excess molar enthalpy (molar enthalpy of mixing); xn = mol fraction of the nth substance listed. Conditions: 473 K, 101.3 kPa, Crystal, Calvet calorimetry.

± gives the expanded uncertainty stated by the source.

On to `O=[N+]([O-])[O-].[Tl+]` [thallium nitrate] + O=[N+]([O-])[O-].[Cs+], for which the excess molar enthalpy by setting is: (x2 = 0.25) 1.25 ± 0.26 kJ/mol; (x2 = 0.5) 1.44 ± 0.3 kJ/mol; (x2 = 0.75) 1.04 ± 0.22 kJ/mol.
